Laboratory results published in PubChem BioAssay AID1745844 (Carcinogenic Potency Database (CPDB), 2022).
Calls of active or inactive are those of the source. How the calls were made is not given here.

Test system: rodent lifetime carcinogenesis bioassay, tumor incidence TD50
Assay: carcinogenic potency in animals, long-term in vivo studies, CPDB compilation (AID 1745844)

Q: How did the TD50 (mouse, strain C57BL/6JfC3Hf/Nctr x BALB/cStCrlfC3Hf/Nctr inter se, females, in drinking water, site: Harderian gland, lesion: adenoma, dosed 143 weeks, study length 143 weeks) turn out when `Nc1ccc(-c2ccc(N)cc2)cc1` was run?
A: 41.1 mg/kg/day

Q: What about the TD50 (mouse, strain C57BL/6JfC3Hf/Nctr x BALB/cStCrlfC3Hf/Nctr inter se, females, in drinking water, site: liver, lesion: hepatocellular adenoma, dosed 60 weeks, study length 60 weeks) of the same molecule?
A: 30.2 mg/kg/day

Q: What about the TD50 (mouse, strain C57BL/6JfC3Hf/Nctr x BALB/cStCrlfC3Hf/Nctr inter se, females, in drinking water, site: liver, lesion: hepatocellular adenoma, dosed 80 weeks, study length 80 weeks) of the same molecule?
A: 78.7 mg/kg/day

Q: What about the TD50 (mouse, strain C57BL/6JfC3Hf/Nctr x BALB/cStCrlfC3Hf/Nctr inter se, females, in drinking water, site: liver, lesion: hepatocellular carcinoma, dosed 60 weeks, study length 60 weeks) of the same molecule?
A: 17.9 mg/kg/day

Q: What about the TD50 (mouse, strain C57BL/6JfC3Hf/Nctr x BALB/cStCrlfC3Hf/Nctr inter se, females, in drinking water, site: liver, lesion: hepatocellular carcinoma, dosed 80 weeks, study length 80 weeks) of the same molecule?
A: 9.6 mg/kg/day

Q: And the TD50 (mouse, strain C57BL/6JfC3Hf/Nctr x BALB/cStCrlfC3Hf/Nctr inter se, females, in drinking water, site: liver, lesion: hepatocellular carcinoma, dosed 143 weeks, study length 143 weeks)?
A: 18.9 mg/kg/day

Q: What about the TD50 (mouse, strain C57BL/6JfC3Hf/Nctr x BALB/cStCrlfC3Hf/Nctr inter se, females, in drinking water, site: uterus, lesion: angioma, dosed 143 weeks, study length 143 weeks) of the same molecule?
A: 402 mg/kg/day

Q: And the TD50 (mouse, strain C57BL/6JfC3Hf/Nctr x BALB/cStCrlfC3Hf/Nctr inter se, males, in drinking water, site: Harderian gland, lesion: adenoma, dosed 143 weeks, study length 143 weeks)?
A: 208 mg/kg/day

Q: And the TD50 (mouse, strain C57BL/6JfC3Hf/Nctr x BALB/cStCrlfC3Hf/Nctr inter se, males, in drinking water, site: liver, lesion: hepatocellular adenoma, dosed 60 weeks, study length 60 weeks)?
A: 67.7 mg/kg/day

Q: What about the TD50 (mouse, strain C57BL/6JfC3Hf/Nctr x BALB/cStCrlfC3Hf/Nctr inter se, males, in drinking water, site: liver, lesion: hepatocellular adenoma, dosed 80 weeks, study length 80 weeks) of the same molecule?
A: 186 mg/kg/day

Q: What about the TD50 (mouse, strain C57BL/6JfC3Hf/Nctr x BALB/cStCrlfC3Hf/Nctr inter se, males, in drinking water, site: liver, lesion: hepatocellular carcinoma, dosed 60 weeks, study length 60 weeks) of the same molecule?
A: 74.3 mg/kg/day

Q: What about the TD50 (mouse, strain C57BL/6JfC3Hf/Nctr x BALB/cStCrlfC3Hf/Nctr inter se, males, in drinking water, site: liver, lesion: hepatocellular carcinoma, dosed 80 weeks, study length 80 weeks) of the same molecule?
A: 39 mg/kg/day

Q: What about the TD50 (mouse, strain C57BL/6JfC3Hf/Nctr x BALB/cStCrlfC3Hf/Nctr inter se, males, in drinking water, site: liver, lesion: hepatocellular carcinoma, dosed 143 weeks, study length 143 weeks) of the same molecule?
A: 60.5 mg/kg/day

Q: And the TD50 (mouse, strain C57BL/6JfC3Hf/Nctr x BALB/cStCrlfC3Hf/Nctr, females, in drinking water, site: Harderian gland, lesion: adenoma, dosed 143 weeks, study length 143 weeks)?
A: 51.7 mg/kg/day

Q: And the TD50 (mouse, strain C57BL/6JfC3Hf/Nctr x BALB/cStCrlfC3Hf/Nctr, females, in drinking water, site: liver, lesion: hepatocellular adenoma, dosed 60 weeks, study length 60 weeks)?
A: 24.7 mg/kg/day

Q: And the TD50 (mouse, strain C57BL/6JfC3Hf/Nctr x BALB/cStCrlfC3Hf/Nctr, females, in drinking water, site: liver, lesion: hepatocellular adenoma, dosed 79 weeks, study length 80 weeks)?
A: 41.9 mg/kg/day

Q: What about the TD50 (mouse, strain C57BL/6JfC3Hf/Nctr x BALB/cStCrlfC3Hf/Nctr, females, in drinking water, site: liver, lesion: hepatocellular carcinoma, dosed 60 weeks, study length 60 weeks) of the same molecule?
A: 17.1 mg/kg/day

Q: And the TD50 (mouse, strain C57BL/6JfC3Hf/Nctr x BALB/cStCrlfC3Hf/Nctr, females, in drinking water, site: liver, lesion: hepatocellular carcinoma, dosed 79 weeks, study length 80 weeks)?
A: 8.99 mg/kg/day

Q: What about the TD50 (mouse, strain C57BL/6JfC3Hf/Nctr x BALB/cStCrlfC3Hf/Nctr, females, in drinking water, site: liver, lesion: hepatocellular carcinoma, dosed 143 weeks, study length 143 weeks) of the same molecule?
A: 10.9 mg/kg/day

Q: What about the TD50 (mouse, strain C57BL/6JfC3Hf/Nctr x BALB/cStCrlfC3Hf/Nctr, females, in drinking water, site: uterus, lesion: angioma, dosed 143 weeks, study length 143 weeks) of the same molecule?
A: 335 mg/kg/day

Q: What about the TD50 (mouse, strain C57BL/6JfC3Hf/Nctr x BALB/cStCrlfC3Hf/Nctr, males, in drinking water, site: Harderian gland, lesion: adenoma, dosed 143 weeks, study length 143 weeks) of the same molecule?
A: 129 mg/kg/day

Q: And the TD50 (mouse, strain C57BL/6JfC3Hf/Nctr x BALB/cStCrlfC3Hf/Nctr, males, in drinking water, site: liver, lesion: hepatocellular adenoma, dosed 60 weeks, study length 60 weeks)?
A: 60.8 mg/kg/day

Q: What about the TD50 (mouse, strain C57BL/6JfC3Hf/Nctr x BALB/cStCrlfC3Hf/Nctr, males, in drinking water, site: liver, lesion: hepatocellular adenoma, dosed 80 weeks, study length 80 weeks) of the same molecule?
A: 94.8 mg/kg/day

Q: And the TD50 (mouse, strain C57BL/6JfC3Hf/Nctr x BALB/cStCrlfC3Hf/Nctr, males, in drinking water, site: liver, lesion: hepatocellular carcinoma, dosed 60 weeks, study length 60 weeks)?
A: 97.5 mg/kg/day

Q: What about the TD50 (mouse, strain C57BL/6JfC3Hf/Nctr x BALB/cStCrlfC3Hf/Nctr, males, in drinking water, site: liver, lesion: hepatocellular carcinoma, dosed 80 weeks, study length 80 weeks) of the same molecule?
A: 33.2 mg/kg/day

Q: And the TD50 (mouse, strain C57BL/6JfC3Hf/Nctr x BALB/cStCrlfC3Hf/Nctr, males, in drinking water, site: liver, lesion: hepatocellular carcinoma, dosed 143 weeks, study length 143 weeks)?
A: 31.2 mg/kg/day

Q: Which results are given for `CCN=[N+](C)[O-]`?
A: TD50 (rat, strain Fischer 344, males, in drinking water, site: kidney, lesion: several types, types named in the paper, dosed 30 weeks, study length 95 weeks): 123 mg/kg/day; TD50 (rat, strain Fischer 344, males, in drinking water, site: liver, lesion: hemangiosarcoma, dosed 30 weeks, study length 95 weeks): 302 mg/kg/day; TD50 (rat, strain Fischer 344, males, in drinking water, site: liver, lesion: hepatocellular carcinoma, dosed 30 weeks, study length 95 weeks): 18.2 mg/kg/day; TD50 (rat, strain Fischer 344, males, in drinking water, site: liver, lesion: neoplastic nodule, dosed 30 weeks, study length 95 weeks): 664 mg/kg/day; TD50 (rat, strain Fischer 344, males, in drinking water, site: liver, lesion: several types, types named in the paper, dosed 30 weeks, study length 95 weeks): 11.5 mg/kg/day

Q: With `CN(N=O)C(=O)c1c(N(C)N=O)ncn1C` as the molecule, how does the TD50 (rat, strain BD IX, both sexes, by gavage, site: forestomach, lesion: squamous-cell carcinoma, dosed 41 weeks, study length 52 weeks) read?
A: 0.183 mg/kg/day

Q: `CNCc1ccc(CSCCNC(=NCC(O)c2ccc(O)cc2)NS(C)(=O)=O)o1` (stereo not drawn) was tested. Which carcinogen call (rat, strain Jcl:SD, females, by gavage, site: liver, lesion: one or several types, types not named, dosed 52 weeks, study length 52 weeks) did it give?
A: negative (inactive)

Q: And the carcinogen call (rat, strain Jcl:SD, females, by gavage, site: liver, lesion: one or several types, types not named, dosed 52 weeks, study length 56 weeks)?
A: negative (inactive)

Q: What about the carcinogen call (rat, strain Jcl:SD, males, by gavage, site: liver, lesion: one or several types, types not named, dosed 52 weeks, study length 52 weeks) of the same molecule?
A: negative (inactive)

Q: And the carcinogen call (rat, strain Jcl:SD, males, by gavage, site: liver, lesion: one or several types, types not named, dosed 52 weeks, study length 56 weeks)?
A: negative (inactive)

Q: Which results are given for `CC1=C(/C=C/C(C)=C/C=C/C(C)=C/C(=O)O)C(C)(C)CCC1`?
A: carcinogen call (rat, strain Sprague-Dawley, females, i.p., site: any site (literature study), lesion: malignant tumor, dosed 104 weeks, study length 104 weeks): negative (inactive); TD50 (rat, strain Sprague-Dawley, males, i.p., site: any site (literature study), lesion: malignant tumor, dosed 104 weeks, study length 104 weeks): 188 mg/kg/day (inactive)
